Test results taken from the supplement of paper PMC10307832.

Legend:
Assay in all cases: relative viability (nuclei count vs DMSO), 5 days (fraction); higher = more cells survive
[1] = compound: N#CC1(c2ccc(NC(=O)c3cccnc3NCc3ccncc3)cc2)CCCC1 [Apatinib] + CC(=O)c1c(C)c2cnc(Nc3ccc(N4CCNCC4)cn3)nc2n(C2CCCC2)c1=O [Palbociclib] (partner 0.5 µM)
Method in brief: (§1)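 Each reported value is a median over duplicate plates. It expresses relative viability: treated-well nuclei count divided by vehicle-well nuclei count. Lung cancer cell lines in 1536-well plates were dosed by pin tool a day after seeding, alone with one drug or with a fixed anchor-drug dose plus five library-drug doses (not always all listed) in √10 steps, and nuclei were counted after 5 days.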

[2] = compound: N#CC1(c2ccc(NC(=O)c3cccnc3NCc3ccncc3)cc2)CCCC1 [Apatinib] + Cc1cc(Nc2cc(N3CCN(C)CC3)nc(Sc3ccc(NC(=O)C4CC4)cc3)n2)n[nH]1 [Tozasertib] (partner 0.1 µM)
Method in brief: as §1

[3] = compound: N#CC1(c2ccc(NC(=O)c3cccnc3NCc3ccncc3)cc2)CCCC1 [Apatinib] + Cc1nc(NC(=O)N2CCC[C@H]2C(N)=O)sc1-c1ccnc(C(C)(C)C(F)(F)F)c1 [Alpelisib] (partner 2 µM)
Method in brief: as §1

[4] = compound: N#CC1(c2ccc(NC(=O)c3cccnc3NCc3ccncc3)cc2)CCCC1 [Apatinib] + N=C(N)NC(=N)NCCc1ccccc1 [Phenformin] (partner 250 µM)
Method in brief: as §1

Cell Line	relative viability ([1]; first compound 0.08 µM)	relative viability ([1]; first compound 0.253 µM)	relative viability ([1]; first compound 0.8 µM)	relative viability ([1]; first compound 2.53 µM)	relative viability ([1]; first compound 8 µM)	relative viability ([2]; first compound 0.08 µM)	relative viability ([2]; first compound 0.253 µM)	relative viability ([2]; first compound 0.8 µM)	relative viability ([2]; first compound 2.53 µM)	relative viability ([2]; first compound 8 µM)	relative viability ([3]; first compound 0.08 µM)	relative viability ([3]; first compound 0.253 µM)	relative viability ([3]; first compound 0.8 µM)	relative viability ([3]; first compound 2.53 µM)	relative viability ([3]; first compound 8 µM)	relative viability ([4]; first compound 0.08 µM)	relative viability ([4]; first compound 0.253 µM)	relative viability ([4]; first compound 0.8 µM)	relative viability ([4]; first compound 2.53 µM)	relative viability ([4]; first compound 8 µM)
NCI-H1734	0.375	0.364	0.334	0.318	0.312	0.246	0.283	0.219	0.231	0.231	0.739	0.774	0.701	0.591	0.595	0.401	0.481	0.381	0.342	0.353
NCI-H1755	0.462	0.464	0.434	0.404	0.422	0.64	0.542	0.529	0.506	0.447	0.933	0.946	0.909	0.899	0.845	0.626	0.611	0.628	0.609	0.559
NCI-H1793	0.35	0.284	0.349	0.264	0.27	0.38	0.369	0.245	0.209	0.226	0.576	0.727	0.471	0.481	0.593	0.352	0.318	0.327	0.224	0.189
NCI-H1915	0.549	0.524	0.555	0.5	0.475	0.422	0.445	0.43	0.35	0.267	1.08	1.09	1.04	0.916	0.81	0.377	0.353	0.334	0.354	0.326
NCI-H1944	0.362	0.327	0.272	0.325	0.255	0.23	0.229	0.239	0.238	0.223	0.868	0.905	0.74	0.798	0.866	0.209	0.207	0.179	0.18	0.159
NCI-H1975	0.654	0.634	0.597	0.522	0.526	0.864	0.691	0.253	0.157	0.157	0.662	0.691	0.508	0.562	0.576	0.425	0.387	0.382	0.389	0.433
NCI-H1993	0.783	0.736	0.597	0.528	0.616	0.637	0.619	0.605	0.583	0.595	0.779	0.675	0.703	0.656	0.654	0.533	0.555	0.528	0.485	0.567
NCI-H2009	0.423	0.206	0.227	0.203	0.167	0.856	0.792	0.687	0.58	0.38	1.13	1.2	1.1	1.02	0.893	0.494	0.497	0.382	0.264	0.219
